# Changes are numbered by the printed parent chain.
# T1: SAMe transporter from S. cerevisiae (Saccharomyces cerevisiae, UniProt Q08986)
# T1 sequence (Q08986 1-587): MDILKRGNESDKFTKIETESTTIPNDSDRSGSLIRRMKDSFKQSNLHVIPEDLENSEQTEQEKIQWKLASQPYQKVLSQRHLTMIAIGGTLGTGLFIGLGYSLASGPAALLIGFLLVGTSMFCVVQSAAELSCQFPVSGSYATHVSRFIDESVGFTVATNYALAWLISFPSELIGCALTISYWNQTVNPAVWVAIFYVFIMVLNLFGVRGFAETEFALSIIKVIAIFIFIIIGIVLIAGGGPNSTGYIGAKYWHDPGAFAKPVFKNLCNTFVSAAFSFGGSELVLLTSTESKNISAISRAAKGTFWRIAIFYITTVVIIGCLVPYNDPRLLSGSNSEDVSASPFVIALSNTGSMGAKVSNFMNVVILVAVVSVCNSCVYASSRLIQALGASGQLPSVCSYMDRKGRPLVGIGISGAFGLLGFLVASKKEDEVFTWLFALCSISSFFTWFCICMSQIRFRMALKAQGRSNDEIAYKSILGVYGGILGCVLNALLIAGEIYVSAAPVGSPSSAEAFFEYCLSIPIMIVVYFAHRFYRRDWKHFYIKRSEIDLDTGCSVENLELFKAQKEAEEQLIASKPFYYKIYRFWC
# T2: O-succinylsulfhydrylase (Pseudomonas aeruginosa, UniProt P55218)
# T2 sequence (P55218 whole entry, looked up): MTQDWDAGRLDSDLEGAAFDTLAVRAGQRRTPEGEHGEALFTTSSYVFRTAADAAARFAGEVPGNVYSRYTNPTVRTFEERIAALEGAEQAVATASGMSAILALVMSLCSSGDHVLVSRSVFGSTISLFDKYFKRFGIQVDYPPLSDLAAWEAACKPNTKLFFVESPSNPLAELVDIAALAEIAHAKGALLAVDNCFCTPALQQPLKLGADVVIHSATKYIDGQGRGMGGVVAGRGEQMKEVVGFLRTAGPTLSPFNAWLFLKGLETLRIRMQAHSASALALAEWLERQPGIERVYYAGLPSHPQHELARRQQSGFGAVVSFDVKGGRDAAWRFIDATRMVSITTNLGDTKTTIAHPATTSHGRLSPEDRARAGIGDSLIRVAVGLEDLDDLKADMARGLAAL
# B1: Val 185 Glu: E. coli MetK mutant, C-terminal His tagged, purified (protein, UniProt P0A817 2-384, looked up, variant V185E)
# S-adenosylmethionine synthase: AKHLFTSESVSEGHPDKIADQISDAVLDAILEQDPKARVACETYVKTGMVLVGGEITTSAWVDIEEITRNTVREIGYVHSDMGFDANSCAVLSAIGKQSPDINQGVDRADPLEQGAGDQGLMFGYATNETDVLMPAPITYAHRLVQRQAEVRKNGTLPWLRPDAKSQVTFQYDDGKIVGIDAVELSTQHSEEIDQKSLQEAVMEEIIKPILPAEWLTSATKFFINPTGRFVIGGPMGDCGLTGRKIIVDTYGGMARHGGGAFSGKDPSKVDRSAAYAARYVAKNIVAAGLADRCEIQVSYAIGVAEPTSIMVETFGTEKVPSEQLTLLVREFFDLRPYGLIQMLDLLHPIYKETAAYGHFGREHFPWEKTDKAQLLRDAAGLK
# modifications: C-terminal His tag
# notes: E. coli MetK mutant, C-terminal His tagged, purified
# B2: Asp 16 Asn (protein, UniProt P0A817 2-384, looked up, variant D16N)
# S-adenosylmethionine synthase: B1 S-adenosylmethionine synthase with D16N, E184V
# B3: His 14 Asn (protein, UniProt P0A817 2-384, looked up, variant H14N)
# S-adenosylmethionine synthase: B1 S-adenosylmethionine synthase with H14N, E184V
# B4: Asp 238 Asn (protein, UniProt P0A817 2-384, looked up, variant D238N)
# S-adenosylmethionine synthase: B1 S-adenosylmethionine synthase with E184V, D238N
# B5: Lys 245 Met (protein, UniProt P0A817 2-384, looked up, variant K245M)
# S-adenosylmethionine synthase: B1 S-adenosylmethionine synthase with E184V, K245M
# B6: Asp 271 Ala (protein, UniProt P0A817 2-384, looked up, variant D271A)
# S-adenosylmethionine synthase: B1 S-adenosylmethionine synthase with E184V, D271A
# B7: O-succinylsulfhydrylase: O-succinylsulfhydrylase (EC 4.2.99.-) codified by metZ from Pseudomonas aeruginosa (protein, UniProt P55218 1-403, looked up)
# O-succinylhomoserine …: T2 sequence (P55218 whole entry, looked up)
# Experiments:
# [1] = biological target: Rickettsia high-affinity SAMe transport system (Rickettsia prowazekii, UniProt Q9ZE70); details: Rickettsia SAMe transporter; cited from earlier work
# [2] = biological target: T1, SAMe transporter from S. cerevisiae; details: cited from earlier work
# [3] = system: SAMe transporter from P. carnii; details: cited from earlier work
# [4] = system: SAMe transporter from rat liver; details: cited from earlier work
# [5] = system: homocysteine synthase encoded by metY from Pseudomonas aeruginosa; assay: Homocysteine synthase (MetY) activity assay (Yamagata, modified, DTNB detection)
# physchem = details: 30 °C, water
# Description: This is close to the highest concentration achievable in the assay conditions.
# [6] = 30° C.; cited from earlier work
# [7] = biological target: high affinity L-methionine transporter (metD) (Escherichia coli, UniProt P28635); details: very high affinity transporter in E. coli; cited from earlier work
# [8] = system: lower affinity L-methionine transporter (metP); details: lower affinity transporter in E. coli; cited from earlier work
# MetK [9] = assay: MetK mutants radioactive assay in vitro ([methyl-14C]methionine to SAMe); type: biochemical, E. coli; details: 5 minute reaction time; C-terminal His tagged proteins unless untagged
# Protocol: The metK gene from E. coli (Accession number AP—003499 or BAE77005) was cloned and overexpressed with either an N-terminal or a C-terminal His tag in pET28b vector. Site directed mutagenesis was performed using the C-terminal His tagged metK clone to generate the desired mutants. Expression of the mutant MetK proteins was confirmed.
# The MetK mutants were purified (using the C-terminal His tag) and assayed in vitro. The wild type C-terminal His-tagged MetK protein was used as a control. The mutants were assayed using a radioactive assay. The assay conditions were as follows: • Assay Mix: • 1.0 mL 0.5 M HEPES/KOH, pH 8.0 • 0.5 mL 1.0 M KCl • 0.2 mL 1.0 M MgCl2 • 1.0 mL 100 mM ATP (disodium salt, pH 8.0 with KOH) • 0.1 mL 50 mM methionine • 0.1 mL NEN [methyl-^14C]methionine • 6.6 mL H2O • 25 mM EDTA pH 8.0 stop for assays.
# 45 μl of assay mix was added to an Eppendorf tube and 5 μL of enzyme (normalized data shown in Table 13. The reaction was incubated at room temperature (or 25° C.) for a desired period (1 to 10 minutes). The reaction was stopped with the addition of 150 μL of 25 mM EDTA. 100 μL of the reaction was spotted onto a 2.5 cm diameter Whatman P-81 phosphocellulose filter circle (labeled in pencil). The filters were washed with 3 L of distilled water, air-dried and placed in scintillation vials with aquasol. The emissions were counted using a window that extends from ^14C to about 0. Assay efficiency and quench levels were determined by adding a known amount of counts of pure ^14C-SAM and processing through the whole procedure. Backgrounds are typically<100 cpm (total counts ca. 10^5 cpm per reaction).
# excreted Met = details: literature reference AEM 2005; cited from earlier work
# MetK [10] = details: literature reference; cited from earlier work
# O-succinylsulfhydrylase = biological target: T2, O-succinylsulfhydrylase; assay: In-vitro assays of O-succinylsulfhydrylase; type: biochemical
# Protocol: Low methionine production of the deletion mutants transformed with metZ may be due to the limitation of sulfide in the intracellular fraction (methods of increasing sulfide concentration are provided below). This is supported by the finding that the growth of the metBC deletion strain transformed with metZ was enhanced in M9 media in the presence of 2 mM sodium sulfide. […] Through directed evolution, it is possible to develop improved O-succinylsulfhydrylases with higher sulfide affinity and also higher activity.
# [11] = OAHS as substrate, 10 mM inhibitor
# Chain of high affinity L-methionine transporter (metD) (P28635 23-271): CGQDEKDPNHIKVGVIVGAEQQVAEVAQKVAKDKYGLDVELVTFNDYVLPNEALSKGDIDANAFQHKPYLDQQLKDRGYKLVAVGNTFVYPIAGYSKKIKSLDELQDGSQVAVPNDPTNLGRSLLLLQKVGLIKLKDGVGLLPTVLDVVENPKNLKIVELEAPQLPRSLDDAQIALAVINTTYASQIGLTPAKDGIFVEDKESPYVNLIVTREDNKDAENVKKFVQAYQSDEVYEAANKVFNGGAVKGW
# Chain of high affinity L-methionine transporter (metD) (P30750 whole entry, further chain): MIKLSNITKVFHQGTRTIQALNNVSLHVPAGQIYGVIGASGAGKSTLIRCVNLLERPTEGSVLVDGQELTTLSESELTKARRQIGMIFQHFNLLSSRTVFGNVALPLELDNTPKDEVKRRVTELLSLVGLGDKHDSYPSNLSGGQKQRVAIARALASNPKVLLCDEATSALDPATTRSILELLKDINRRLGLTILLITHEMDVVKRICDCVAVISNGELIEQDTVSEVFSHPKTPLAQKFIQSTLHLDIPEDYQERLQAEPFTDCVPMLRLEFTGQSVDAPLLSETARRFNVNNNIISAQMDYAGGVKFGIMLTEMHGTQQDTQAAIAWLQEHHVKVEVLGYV
# Chain of high affinity L-methionine transporter (metD) (P31547 whole entry, further chain): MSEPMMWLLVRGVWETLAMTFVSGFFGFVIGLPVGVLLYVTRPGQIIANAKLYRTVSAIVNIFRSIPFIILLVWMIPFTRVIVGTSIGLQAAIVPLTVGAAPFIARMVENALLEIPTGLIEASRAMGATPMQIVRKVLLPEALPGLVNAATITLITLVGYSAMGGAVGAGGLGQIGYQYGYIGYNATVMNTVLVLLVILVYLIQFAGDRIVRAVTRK
# Chain of Rickettsia high-affinity SAMe transport system (Q9ZE70 whole entry, looked up): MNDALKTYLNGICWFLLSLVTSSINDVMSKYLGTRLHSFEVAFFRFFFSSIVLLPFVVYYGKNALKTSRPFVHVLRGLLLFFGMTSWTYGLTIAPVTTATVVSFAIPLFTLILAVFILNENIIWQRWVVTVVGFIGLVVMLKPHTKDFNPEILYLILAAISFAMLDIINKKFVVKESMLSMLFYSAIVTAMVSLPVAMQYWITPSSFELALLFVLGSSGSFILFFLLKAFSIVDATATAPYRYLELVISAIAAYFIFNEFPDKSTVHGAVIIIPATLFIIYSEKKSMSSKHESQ
molecule,measurement,setting,value
"C[S+](CC[C@H](N)C(=O)O)C[C@H]1O[C@@H](n2cnc3c(N)ncnc32)[C@H](O)[C@@H]1O (stereo partly shown) [SAMe, S-adenosylmethionine]",KT,[1],2 to 8 µM
same,KT,[2],3.3 µM
same,KT,[3],4.5 µM
same,KT,[4],8.9 µM
same,activity retained relative to absence of inhibitor,"[5]; OAHS as substrate, 5 mM inhibitor",approximately 72%
same,activity retained relative to absence of inhibitor,[5]; [11],~21%
same,activity retained relative to absence of inhibitor,"[5]; OSHS as substrate, 5 mM inhibitor",86%
same,activity retained relative to absence of inhibitor,"[5]; OSHS as substrate, 10 mM inhibitor",19%
CSCC[C@H](N)C(=O)O [methionine],solubility,physchem,375 mM
same,solubility in water,[6],5.6 g/100 mL
same,Km,[7],100 to 130 nM
same,Km,[8],20 to 40 µM
same,inhibition of MetY,[5]; 1 mM methionine,Some inhibition
same,activity retained relative to absence of inhibitor,[5]; [11],about 50%
same,activity retained relative to absence of inhibitor,"[5]; OAHS as substrate, 50 mM inhibitor",~19%
same,activity retained relative to absence of inhibitor,"[5]; OAHS as substrate, 100 mM inhibitor",~9%
same,activity retained relative to absence of inhibitor,"[5]; OSHS as substrate, 50 mM inhibitor",53%
same,activity retained relative to absence of inhibitor,"[5]; OSHS as substrate, 100 mM inhibitor",31%
B1,Activity (CPM SAMe/ μg purified protein/min),MetK [9],4.9 CPM SAMe/ μg purified protein/min
same,Expected Effect: increase in excreted Met over control,excreted Met,6.4X increase in
B2,Activity (CPM SAMe/ μg purified protein/min),MetK [9],2.5 CPM SAMe/ μg purified protein/min
same,Expected Effect on SAMe synth: kcat reduction,MetK [10],kcat reduction of ~ 103 fold
B3,Activity (CPM SAMe/ μg purified protein/min),MetK [9],7.7 CPM SAMe/ μg purified protein/min
same,Expected Effect on SAMe synth: activity reduced / lower activity than WT,MetK [10],Activity reduced ~ 104 fold
B4,Activity (CPM SAMe/ μg purified protein/min),MetK [9],1.9 CPM SAMe/ μg purified protein/min
same,Expected Effect on SAMe synth: kcat reduction,MetK [10],kcat reduction of ~ 103 fold
B5,Activity (CPM SAMe/ μg purified protein/min),MetK [9],2.5 CPM SAMe/ μg purified protein/min
same,Expected Effect on SAMe synth: activity reduced / lower activity than WT,MetK [10],"42,000 fold"
B6,Activity (CPM SAMe/ μg purified protein/min),MetK [9],0.4 (not duplicated) CPM SAMe/ μg purified protein/min
same,Expected Effect on SAMe synth: kcat reduction,MetK [10],kcat reduction of ~ 103 fold
B7,sulfide affinity,O-succinylsulfhydrylase,low sulfide affinity

# — patent US8551742B2 (priority 2007, dated 2013)
